Assay results published in US20070225203A1, “Method and Composition for Preventing Multiple Organ Dysfunction Syndrome” (N.V. NUTRICIA, priority 2003, published 2007).

Key:
[1] = target: xanthine oxidase (Homo sapiens, UniProt P47989); assay: Xanthine oxidase inhibition by flavonoids; type: biochemical
[2] = Oxidative stress, plasma concentrations of malon dialdehyde
[3] = test system: HepG2 cells; assay: GTP concentration in folic acid challenged HepG2 cells; type: cell-based, human
Experimental: HepG2 cells, a human hepatocarcinoma cell line, were obtained from ATCC. These were maintained in MEM supplemented with 10% FCS; 1% NEAA; 1% penicillin/streptomycin mixture. Cells were seeded primarily at a density of approximately 1-2×10^6 cells and were split and transferred to new flasks when showing 70-90% confluency. 96-well microtitre plates (ex Micronic, Leylstad, N L.), containing 0.35×10^6 cells per well were incubated for 24 hours at 37° C.; 5% CO2. HepG2's were folic acid challenged by addition of folic acid free media for 1 hour. This folic acid challenged cells were compared with cells that remained at an increasing concentration of folic acid or ribose.
Nucleotides were measured as described by van Hoorn et al., Analytical Biochemistry (2003), 320, 82-87.
1. 6.5 hours incubation of HepG2 cells in either folic acid depleted media or media containing 2.27 μM folic acid

Sequence of xanthine oxidase (P47989 whole entry, species assumed): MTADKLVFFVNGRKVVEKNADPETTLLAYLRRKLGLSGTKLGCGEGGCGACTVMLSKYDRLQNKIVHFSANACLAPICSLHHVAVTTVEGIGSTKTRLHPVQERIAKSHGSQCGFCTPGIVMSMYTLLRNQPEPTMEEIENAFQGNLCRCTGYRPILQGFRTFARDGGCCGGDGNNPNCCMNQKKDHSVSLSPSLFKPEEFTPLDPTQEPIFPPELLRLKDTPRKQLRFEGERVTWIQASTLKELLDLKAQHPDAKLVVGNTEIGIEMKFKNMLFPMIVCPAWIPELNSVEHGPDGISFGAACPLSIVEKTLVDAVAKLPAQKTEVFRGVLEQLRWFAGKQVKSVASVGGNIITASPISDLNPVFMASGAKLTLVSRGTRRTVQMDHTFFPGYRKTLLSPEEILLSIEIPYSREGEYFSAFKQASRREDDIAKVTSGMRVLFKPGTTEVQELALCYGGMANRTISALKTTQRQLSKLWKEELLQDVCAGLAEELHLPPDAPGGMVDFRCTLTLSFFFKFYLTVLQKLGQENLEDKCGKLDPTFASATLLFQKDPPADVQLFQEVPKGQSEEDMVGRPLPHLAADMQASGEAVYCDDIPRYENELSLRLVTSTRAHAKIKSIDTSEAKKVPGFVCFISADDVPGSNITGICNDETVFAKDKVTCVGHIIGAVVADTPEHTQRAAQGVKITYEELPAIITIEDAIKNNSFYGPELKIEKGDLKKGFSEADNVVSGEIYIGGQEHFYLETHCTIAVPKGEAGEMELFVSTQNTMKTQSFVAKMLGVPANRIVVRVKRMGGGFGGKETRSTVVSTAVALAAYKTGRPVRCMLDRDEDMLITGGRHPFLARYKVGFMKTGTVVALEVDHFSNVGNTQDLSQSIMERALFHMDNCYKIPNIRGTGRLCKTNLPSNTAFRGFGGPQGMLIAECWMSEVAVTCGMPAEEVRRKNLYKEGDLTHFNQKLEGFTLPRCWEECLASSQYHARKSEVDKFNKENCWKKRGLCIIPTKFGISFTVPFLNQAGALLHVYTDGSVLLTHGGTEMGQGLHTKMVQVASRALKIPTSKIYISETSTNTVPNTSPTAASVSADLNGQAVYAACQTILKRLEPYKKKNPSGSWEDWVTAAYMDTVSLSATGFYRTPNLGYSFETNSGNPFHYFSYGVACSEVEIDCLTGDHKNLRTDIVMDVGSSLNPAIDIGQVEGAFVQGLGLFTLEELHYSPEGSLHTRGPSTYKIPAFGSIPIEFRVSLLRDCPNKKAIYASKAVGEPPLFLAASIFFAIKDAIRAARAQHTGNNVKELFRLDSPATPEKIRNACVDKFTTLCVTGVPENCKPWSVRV

Row | SMILES | xanthine oxidase inhibition [1] | oxidative stress, plasma concentrations of malon dialdehyde [2] | GTP concentration in HepG2 cells ([3]; single agent vs folic acid challenged cells, folic acid 2.27 μM, 6.5 hours) | GTP concentration in HepG2 cells, ribose on top of folic acid ([3]; combination of ribose with folic acid, FIG. 10)
1 | O=c1cc(-c2ccc(O)c(O)c2)oc2cc(O)cc(O)c12 [luteolin] | good xanthine oxidase inhibitors | inhibit oxidative stress | – | –
2 | Nc1nc2ncc(CNc3ccc(C(=O)N[C@@H](CCC(=O)O)C(=O)O)cc3)nc2c(=O)[nH]1 [folic acid] | – | – | significantly increased | –
3 | O=C[C@H](O)[C@H](O)[C@H](O)CO [ribose] | – | – | – | additive effect
4 | O=c1c(O)c(-c2ccc(O)c(O)c2)oc2cc(O)cc(O)c12 [quercetin] | good xanthine oxidase inhibitors | inhibit oxidative stress | – | –
5 | O=c1cc(-c2ccc(O)cc2)oc2cc(O)cc(O)c12 [apigenin] | good xanthine oxidase inhibitors | inhibit oxidative stress | – | –
